Assay results reported in patent publication US7999137B2, “Pesticide bi-phenyl-amidine derivatives” (Bayer Cropscience AG, priority 2006, dated 2011).

Experiment: logP by HPLC on reversed-phase column (C 18), EEC Directive 79/831 Annex V.A8
Assay type: physicochemical
Conditions: HPLC reversed-phase C 18; 40° C.; 0.1% aqueous formic acid and acetonitrile, linear gradient 10% to 90% acetonitrile
Experimental: Temperature: 40° C.; Mobile phases: 0.1% aqueous formic acid and acetonitrile; linear gradient from 10% acetonitrile to 90% acetonitrile.
Calibration was carried out using unbranched alkan-2-ones (comprising 3 to 16 carbon atoms) with known logP values (determination of the logP values by the retention times using linear interpolation between two successive alkanones).

| log p (HCOOH) | Structure (SMILES) |
| --- | --- |
| 2.38 | CCN(C)C=Nc1cc(C)c(-c2ccc(C(C)(CC)OC)cc2)cc1C (stereo not shown) [Compound 159] |
| 2.13 | CCN(C)C=Nc1ccc(-c2ccc(Cl)c(C)c2)cc1Cl [Compound 110] |
| 2.59 | CCN(C)C=Nc1cc(C)c(-c2ccc(C(F)(F)F)c(Cl)c2)cc1C [Compound 142] |
| 2.71 | CCN(C)C=Nc1cc(C)c(-c2ccc(C(C)(C)C)cc2)cc1Cl [Compound 106] |
| 2.09 | CCN(C)C=Nc1ccc(-c2ccc(F)c(F)c2)cc1C(F)(F)F [Compound 83] |
| 1.79 | CCN(C)C=Nc1ccc(-c2cc(OC)c(OC)c(OC)c2)cc1C(F)(F)F [Compound 75] |
| 2.62 | CCN(C)C=Nc1cc(C)c(-c2ccc(OC(C)C)c(Cl)c2)cc1C [Compound 171] |
| 1.68 | CCN(C)C=Nc1cc(C)c(-c2cc(OC)c(OC)c(OC)c2)cc1C [Compound 39] |
| 2.37 | CCN(C)C=Nc1cc(C)c(-c2ccc(C)c(Cl)c2)cc1C [Compound 146] |
| 2.92 | CCC(C)c1ccc(-c2cc(C)c(N=CN(C)CC)cc2C)cc1 (stereo not shown) [Compound 163] |
| 2.70 | C=CCN(C)C=Nc1cc(C)c(-c2ccc(C(F)(F)F)c(Cl)c2)cc1C [Compound 144] |
| 1.78 | CCN(C)C=Nc1ccc(-c2ccc(OC)cc2)cc1C(F)(F)F [Compound 87] |
| 4.58 | CCN(C)C(S)=Nc1cc(C)c(-c2ccc(C(C)(C)C)cc2)cc1C [Compound 28] |
| 2.53 | Cc1cc(-c2ccc(C(C)(C)C)cc2)c(C)cc1N=CN1CCOCC1 [Compound 118] |
| 1.95 | COc1ccc(-c2cc(OC)c(N=CN(C)C(C)C)cc2OC)cc1Cl [Compound 102] |
| 2.57 | CCN(C)C=Nc1ccc(-c2ccc(Cl)c(Cl)c2)cc1C(F)(F)F [Compound 81] |
| 1.89 | CCN(C)C=Nc1cc(OC)c(-c2ccc(C)cc2)cc1OC [Compound 98] |
| 3.18 | CCN(C)C=Nc1cc(C)c(-c2ccc(C3CCCCC3)cc2)cc1C [Compound 165] |
| 2.03 | CCN(C)C=Nc1ccc(-c2ccc(Cl)cc2C)cc1Cl [Compound 113] |
| 1.59 | CCN(C)C=Nc1ccc(-c2ccc(COC)cc2)cc1C [Compound 37] |
| 2.27 | CCN(C)C=Nc1cc(C)c(-c2ccc(Cl)c(Cl)c2)cc1C [Compound 44] |
| 2.01 | CCN(C)C=Nc1cc(C)c(-c2ccc(C)cc2)cc1C [Compound 131] |
| 1.58 | CCN(C)C=Nc1ccc(-c2cc(OC)c(OC)c(OC)c2)cc1Cl [Compound 63] |
| 2.29 | CCN(C)C=Nc1ccc(-c2ccc(F)c(F)c2F)cc1C(F)(F)F [Compound 79] |
| 2.17 | CCc1cc(-c2ccc(F)c(Cl)c2)ccc1N=CN(C)CC [Compound 10] |

Further lines, the molecule ahead of its results:

| Structure (SMILES) | log p (HCOOH) |
| --- | --- |
| CCN(C)C=Nc1ccc(-c2ccc(Br)cc2)cc1C(F)(F)F [Compound 80] | 2.24 |
| CCN(C)C=Nc1ccc(-c2ccc(F)cc2)cc1Cl [Compound 13] | 1.69 |
| CCN(C)C=Nc1ccc(-c2ccc(C(C)(C)C)cc2)cc1C(F)(F)F [Compound 2] | 2.83 |
| CCN(C)C=Nc1ccc(-c2ccc(F)c(C)c2)cc1C(F)(F)F [Compound 82] | 2.20 |
| CCN(C)C=Nc1ccc(-c2ccc(C(C)=NOC)cc2)cc1C [Compound 31] | 2.02 |
| CCN(C)C=Nc1ccc(-c2ccc(OC)c(OC)c2)cc1C(F)(F)F [Compound 94] | 1.71 |
| CCN(C)C=Nc1ccc(-c2ccc(OC)c(C)c2)cc1Cl [Compound 115] | 1.86 |
| Cc1cc(-c2ccc(C(C)(C)C)cc2)c(C)cc1N=CN1CCCCC1C (stereo not shown) [Compound 117] | 3.02 |
| CCN(C)C=Nc1cc(C)c(-c2ccc(OC(C)(C)C)cc2)cc1C [Compound 160] | 2.28 |
| CCN(C)C=Nc1cc(C)c(-c2ccc(F)c(Cl)c2)cc1C [Compound 137] | 2.02 |
| CCN(C)C=Nc1ccc(-c2ccc(C=NOC)cc2)cc1C [Compound 30] | 1.94 |
| CCN(C)C=Nc1cc(C)c(-c2cccc(Cl)c2)cc1C [Compound 133] | 2.15 |
| CCN(C)C=Nc1cc(C)c(-c2ccc(S(=O)(=O)N(C)C)cc2)cc1C [Compound 173] | 1.76 |
| Cc1cc(-c2ccc(Cl)cc2)c(C)cc1N=C1NCCCN1 [Compound 122] | 2.08 |
| CCN(C)C=Nc1ccc(-c2ccc(Cl)cc2Cl)cc1F [Compound 86] | 2.05 |
| CCN(C)C=Nc1cc(C)c(-c2cccc([Si](C)(C)C)c2)cc1C [Compound 179] | 3.00 |
| CCN(C)C=Nc1cc(C)c(-c2ccc(COC)cc2)cc1C [Compound 49] | 1.76 |
| CCc1cc(-c2ccc(Cl)cc2Cl)ccc1N=CN(C)CC [Compound 57] | 2.26 |
| Cc1cc(-c2ccc(F)cc2)c(C)cc1N=C1NCCCN1 [Compound 123] | 1.81 |

| Structure (SMILES) | log p (HCOOH) |
| --- | --- |
| CCN(C)C=Nc1cc(C)c(-c2ccc(OCc3ccccc3)cc2)cc1C [Compound 48] | 2.55 |
| CCN(C)C=Nc1cc(C)c(-c2cccc(C(C)C)c2)cc1C [Compound 178] | 2.42 |
| CCc1cc(-c2ccc(F)c(C)c2)ccc1N=CN(C)CC [Compound 55] | 1.98 |
| CCN(C)C=Nc1ccc(-c2ccc(F)c(Cl)c2)cc1C(F)(F)F [Compound 4] | 2.36 |
| CCN(C)C=Nc1ccc(-c2ccc(OC)cc2)cc1Cl [Compound 70] | 1.71 |
| CCCN(C)C=Nc1cc(C)c(-c2ccc(C)c(Cl)c2)cc1C [Compound 147] | 2.56 |
| CCN(C)C=Nc1ccc(-c2ccc(C(C)=NOC)cc2)cc1Cl [Compound 65] | 2.00 |
| CCN(C)C=Nc1ccc(-c2ccc(Cl)c(Cl)c2)cc1Cl [Compound 66] | 2.25 |
| CCN(C)C=Nc1cc(C)c(-c2ccc(Cl)c(C(F)(F)F)c2)cc1Cl [Compound 107] | 2.30 |
| CCN(C)C=Nc1cc(C)c(-c2ccccc2)cc1C [Compound 134] | 1.77 |
| CCCN(C)C=Nc1cc(C)c(-c2ccc(C(F)(F)F)c(Cl)c2)cc1C [Compound 143] | 2.69 |
| CCN(C)C=Nc1cc(C)c(-c2cccc3ccccc23)cc1C [Compound 135] | 2.13 |
| CCN(C)C=Nc1cc(C)c(-c2ccc(C=NOC)cc2)cc1C [Compound 40] | 2.05 |
| CCN(C)C=Nc1ccc(-c2ccc(OCc3ccccc3)cc2)cc1F [Compound 92] | 2.27 |
| CCN(C)C=Nc1ccc(-c2cc(OC)c(OC)c(OC)c2)cc1C [Compound 29] | 1.56 |
| CCN(C)C=Nc1cc(C)c(-c2ccc(C(C)=NOC)cc2)cc1C [Compound 42] | 2.24 |
| CCN(C)C=Nc1cc(C)c(-c2ccc(F)c(F)c2F)cc1C [Compound 43] | 2.32 |
| CCN(C)C=Nc1cc(C)c(-c2ccc(OC(C)C)cc2)cc1C [Compound 170] | 2.18 |
| CCN(C)C=Nc1cc(C)c(-c2ccc(C(C)(C)C)c(Br)c2)cc1C [Compound 164] | 3.13 |

| Structure (SMILES) | log p (HCOOH) |
| --- | --- |
| CCN(C)C=Nc1ccc(-c2ccc(F)c(F)c2)cc1Cl [Compound 68] | 1.83 |
| CCN(C)C=Nc1cc(C)c(-c2ccc(Cl)c(F)c2)cc1C [Compound 41] | 2.32 |
| CCN(C)C=Nc1ccc(-c2cccc(Cl)c2)c(Cl)c1 [Compound 96] | 1.92 |
| CCN(C)C=Nc1ccc(-c2ccc(C=NOC)cc2)cc1Cl [Compound 64] | 1.87 |
| Cc1ccc(-c2cc(C)c(N=CN3CCCC3)cc2C)cc1Cl [Compound 150] | 2.37 |
| CCc1cc(-c2cc(OC)c(OC)c(OC)c2)ccc1N=CN(C)CC [Compound 50] | 1.69 |
| CCN(C)C=Nc1ccc(-c2ccc(C(C)=NOC)cc2)cc1C(F)(F)F [Compound 78] | 2.24 |
| Cc1cc(-c2ccc(C(C)(C)C)cc2)c(C)cc1N=CN1CCCCC1 [Compound 116] | 2.69 |
| CCN(C)C=Nc1ccc(-c2ccc(Cl)c(C)c2)cc1C [Compound 108] | 2.14 |
| Cc1cc(-c2ccc(C(C)C)cc2)c(C)cc1N=CN1CCCCC1 [Compound 158] | 2.60 |
| CCON=C(C)c1ccc(-c2cc(C)c(N=CN3CCCCC3)cc2C)cc1 [Compound 141] | 2.22 |
| CCN(C)C=Nc1ccc(-c2ccc(F)c(F)c2)cc1F [Compound 84] | 1.68 |
| CCN(C)C=Nc1ccc(-c2ccc(OCc3ccccc3)cc2)cc1C [Compound 36] | 2.46 |
| CCN(C)C=Nc1cc(C)c(-c2ccc(Br)cc2)cc1C [Compound 175] | 2.20 |
| CCN(C)C=Nc1ccc(-c2ccc(F)cc2)cc1F [Compound 15] | 1.50 |
| CCN(C)C=Nc1ccc(-c2ccc(OCc3ccccc3)cc2)cc1C(F)(F)F [Compound 91] | 2.43 |
| CCN(C)C=Nc1ccc(-c2ccc(C=NOC)cc2)cc1C(F)(F)F [Compound 76] | 2.01 |
| Cc1cc(-c2ccc(F)cc2)c(C)cc1N=C1NCCN1 [Compound 124] | 1.72 |
| CCN(C)C=Nc1cc(C)c(-c2ccc(CC(C)C)cc2)cc1C [Compound 162] | 2.84 |

Same assay, conditions: reversed-phase HPLC column (C 18); HPLC reversed-phase C 18; 40° C.; 0.1% aqueous formic acid and acetonitrile, linear gradient 10% to 90% acetonitrile; read-out: log p (HCOOH)

| chromatographic logP | Structure (SMILES) |
| --- | --- |
| 2.67 | CCN(C)/C=N/c1cc(C)c(-c2ccc(C(C)(C)C)cc2)cc1C [Compound 8, N′-(4′-tert-butyl-2,5-dimethylbiphenyl-4-yl)-N-ethyl-N-methylimidoformamide] |

Same assay, conditions: reversed-phase HPLC column (C 18); pH 2.3; HPLC, 0.1% aqueous formic acid and acetonitrile, 40° C.; read-out: log P (pH 2.3)

| chromatographic logP | Structure (SMILES) |
| --- | --- |
| 3.65 | Cc1cc(-c2ccc(C(C)(C)C)cc2)c(C)cc1N [Intermediate (VII-1), 4′-tert-butyl-2,5-dimethylbiphenyl-4-amine] |
| 2.67 | CCN(C)/C=N/c1cc(C)c(-c2ccc(C(C)(C)C)cc2)cc1C [Compound 8, N′-(4′-tert-butyl-2,5-dimethylbiphenyl-4-yl)-N-ethyl-N-methylimidoformamide] |
